Measurements: article PMC11590367, “Characterization of novel small molecule inhibitors of estrogen receptor-activation function 2 (ER-AF2)” (Breast Cancer Research : BCR, 2024)

What was measured:
[1] = test system: ER transcriptional activity in T47D-KBluc cells; test: Luciferase transcriptional assay; assay type: cell-based; conditions: ER transcription, luciferase reporter, 1 nM E2, 24 h treatment, ± SD of 3 biological replicates
Description: T47D-KBluc cells or PC3m-luc cells were starved for 72 h and then seeded into 96-well plates at 20,000 or 5,000 cells/well, respectively. […] One day post-treatment, the media was removed, and cells were lysed with 65 µl of 1x passive lysis buffer (Promega #E1910). Following two freeze-thaw cycles, 20 µl of lysate were transferred to a white, 96-well flat bottom plate (Corning Life Sciences Cat#3912). 50 µl of luciferase reagent (Promega. Luciferase Assay System E1500) was added to each well, and luminescence was measured using the TECAN M200 Pro plate reader. E2 (1 nM), 4-hydroxytamoxifen (OHT) (4 nM), and DMSO (0.2%) were used as controls for this assay. […] E2 alone represented 100% transcriptional activation, while the 0.2% DMSO control represented 0% transcriptional activity. OHT was used as a positive control for an active compound.

[2] = target: T1, PR (ARR3tk-luc) in PC3 cells (Homo sapiens, UniProt P06401); test: Nuclear receptor luciferase transcriptional assay, PR; assay type: cell-based; conditions: 1 or 5 µM, 1 nM Levonorgestrel
T1 construct: expressed in transfected cells; host or cells: PC3 cells
Description: (§1) PC3 cells (androgen receptor (AR)-, glucocorticoid receptor (GR)[…], progesterone receptor (PR)-, ER-) were starved for 72 h then seeded into a 96-well plate at a density of 5,000 cells/well. 24 h later, cells were transfected with either ER, AR, GR, or PR and a luciferase plasmid (ERE-luc for ER and ARR3tk-luc for AR, GR, and PR). 24 h post-transfection, cells were simultaneously stimulated with 1 nM E2 for ER, 0.1 nM R1881 for AR, 1 nM Dexamethasone for GR, or 1 nM Levonorgestrel for PR, and treated with 1 or 5 µM of VPC-260724 24 h post-treatment, cells were lysed with 50 µl of passive lysis buffer (Promega #E1910). 20 µl of lysate was transferred to a white flat-bottom 96-well plate (Corning Life Sciences Cat#3912). Luminescence readings were obtained using the TECAN M200 Pro plate reader following the addition of 50 µl of luciferase reagent (Promega Luciferase Assay System E1500).

ER D538G/F404L mutant = ER D538G/F404L mutant (Homo sapiens, UniProt P03372, D538G/F404L); test: Transcriptional activity of fulvestrant resistant mutant ER; assay type: cell-based; conditions: compared to DMSO
[3] = test system: ER target genes (cyclinD1, CDC2, E2F, PR, pS2) in TamR3 cells; test: Real-time PCR of ER target genes, TamR3; assay type: cell-based; conditions: 72 h
Description: Total RNA was extracted using TRIzol, 72 h post-treatment. cDNA synthesis was conducted using the Maxima First Strand cDNA Synthesis Kit for RT-qPCR (Thermo K1641) according to the manufacturer’s protocol. RT-PCR was conducted on the QuantStudio 7 Pro instrument and expression fold change was calculated using 2−ΔΔCt method normalized to 18s.

[4] = target: T2, AR (ARR3tk-luc) in PC3 cells (Homo sapiens, UniProt P10275); test: Nuclear receptor luciferase transcriptional assay, AR; assay type: cell-based; conditions: 1 or 5 µM, 0.1 nM R1881, PC3 cells
T2 construct: expressed in transfected cells; host or cells: PC3 cells
Description: as §1

[5] = target: T3, recombinant ER-LBD (residues 298–554) (Homo sapiens, UniProt P03372); test: Microscale thermophoresis (MST) direct binding; conditions: averaged from three independent assays, 20 µM E2 in buffer, read-out: Kd (binding affinity to ER-LBD)
T3 construct: The ER-LBD (residues 298–554) was cloned into pET28a bacterial expression plasmid; His-tag (N); made in house; host or cells: E. coli BL21-DE3 (with pRARE)
Description: The ER-LBD (residues 298–554) was cloned into pET28a bacterial expression plasmid with an N-terminal His-tag. pET28a-His-ER and pRARE were transformed into E. coli (BL21-DE3). Bacteria were grown at 37 [drawing 1] C overnight, and then diluted 1:20 the following day in LB media and grown at 37 [drawing 2] C until the OD600 reached 0.5. Protein expression was induced with 1 mM IPTG, and 50 µM E2 was added to the media. Cells were then grown for 5 h at 25 °C. Bacterial pellets were collected by centrifugation at 13,000 rpm for 7 min. Pellets were resuspended in lysis buffer (25 mM Tris, pH 8.4, 150 mM NaCl, 20 µM E2, 1 mM DTT, 0.1 mM PMSF, cOmplete protease inhibitor (Roche)) then sonicated and centrifuged to obtain the soluble extracts. ER-LBD was purified using affinity chromatography with Ni-NTA agarose resin. The presence of the ER-LBD in eluted fractions was confirmed by SDS-PAGE and validated by mass spectrometry. The eluted protein was further purified by size exclusion chromatography (s75), and fractions containing the ER-LBD protein were pooled and concentrated using Amicon Ultra centrifugal filters (3 K MWCO).
MST was used to validate the direct binding and measure the binding affinities between the lead compounds and the recombinant ER-LBD. […]

[6] = target: T4, ER-SRC3 interaction in MCF7 cells (Homo sapiens, UniProt P03372); test: Proximity ligation assay (PLA), MCF7; assay type: cell-based; conditions: 10 µM, 48 h, E2 stimulation
T4 construct: endogenous in cells; host or cells: MCF7 or TamR3 cells
Description: MCF7 or TamR3 cells were starved for 72 h and then seeded onto PEI coated coverslips in a 6-well plate at 1 × 10^5 cells/well. […] […] […] Coverslips were then permeabilized with 0.05% Triton X-100 for 5 minutes at room temperature. The Duolink In Situ Detection Reagents Red kit from Millipore Sigma (DUO92008) was used for blocking and PLA according to the manufacturer’s protocol. Primary antibodies, Estrogen Receptor alpha antibody (F-10) (sc-8002) and Rabbit anti-SRC3 antibody (A300-348 A), were diluted 1:50 in antibody diluent.

ER D538G/F404L mutant, sequence (P03372 whole entry F404L/D538G): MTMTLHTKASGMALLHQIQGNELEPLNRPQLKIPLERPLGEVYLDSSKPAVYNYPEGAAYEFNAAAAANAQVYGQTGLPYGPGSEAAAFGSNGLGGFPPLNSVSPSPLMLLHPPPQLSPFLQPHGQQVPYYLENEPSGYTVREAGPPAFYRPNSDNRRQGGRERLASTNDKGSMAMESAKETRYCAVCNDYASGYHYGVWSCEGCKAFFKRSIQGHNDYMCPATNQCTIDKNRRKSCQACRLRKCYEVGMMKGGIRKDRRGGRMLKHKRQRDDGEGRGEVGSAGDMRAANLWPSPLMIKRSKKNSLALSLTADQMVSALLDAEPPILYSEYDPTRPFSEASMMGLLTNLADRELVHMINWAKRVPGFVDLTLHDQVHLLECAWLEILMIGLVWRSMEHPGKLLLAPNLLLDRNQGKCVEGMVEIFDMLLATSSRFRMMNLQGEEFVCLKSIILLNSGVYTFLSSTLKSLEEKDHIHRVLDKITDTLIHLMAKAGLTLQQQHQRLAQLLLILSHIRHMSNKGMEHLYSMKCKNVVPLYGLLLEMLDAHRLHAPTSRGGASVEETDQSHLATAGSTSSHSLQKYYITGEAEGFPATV
T3 sequence (P03372 298-554): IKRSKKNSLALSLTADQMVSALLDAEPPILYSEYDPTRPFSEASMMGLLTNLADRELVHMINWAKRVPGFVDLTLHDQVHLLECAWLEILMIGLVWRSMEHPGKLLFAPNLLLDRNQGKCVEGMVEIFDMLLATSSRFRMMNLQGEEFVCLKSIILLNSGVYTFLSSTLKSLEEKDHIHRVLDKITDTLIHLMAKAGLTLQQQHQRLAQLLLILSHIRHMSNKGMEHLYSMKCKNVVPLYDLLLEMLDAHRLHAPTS
T2 sequence (P10275 whole entry): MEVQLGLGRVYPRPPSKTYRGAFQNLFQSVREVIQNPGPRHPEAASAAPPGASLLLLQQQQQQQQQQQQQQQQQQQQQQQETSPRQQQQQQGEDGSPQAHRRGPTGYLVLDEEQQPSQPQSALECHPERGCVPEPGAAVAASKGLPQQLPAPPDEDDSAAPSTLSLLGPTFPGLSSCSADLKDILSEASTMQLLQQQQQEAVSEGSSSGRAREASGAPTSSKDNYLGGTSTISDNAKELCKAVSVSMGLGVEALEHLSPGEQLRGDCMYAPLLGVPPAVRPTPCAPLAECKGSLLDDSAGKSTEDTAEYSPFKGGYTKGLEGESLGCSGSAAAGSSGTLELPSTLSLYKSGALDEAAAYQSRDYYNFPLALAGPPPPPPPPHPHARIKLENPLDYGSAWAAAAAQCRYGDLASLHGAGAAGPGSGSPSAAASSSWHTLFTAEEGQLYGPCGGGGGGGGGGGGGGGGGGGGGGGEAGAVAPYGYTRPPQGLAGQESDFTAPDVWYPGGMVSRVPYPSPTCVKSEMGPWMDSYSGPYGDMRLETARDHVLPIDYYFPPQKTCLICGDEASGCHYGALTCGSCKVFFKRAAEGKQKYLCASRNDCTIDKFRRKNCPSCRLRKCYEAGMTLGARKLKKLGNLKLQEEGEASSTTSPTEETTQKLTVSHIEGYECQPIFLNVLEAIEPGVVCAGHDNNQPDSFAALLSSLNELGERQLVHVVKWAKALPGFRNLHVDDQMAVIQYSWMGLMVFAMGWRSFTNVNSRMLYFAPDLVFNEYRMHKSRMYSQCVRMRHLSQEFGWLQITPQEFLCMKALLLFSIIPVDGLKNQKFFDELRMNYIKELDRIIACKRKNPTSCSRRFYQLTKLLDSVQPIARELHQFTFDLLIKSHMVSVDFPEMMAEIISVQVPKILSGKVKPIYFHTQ
T1 sequence (P06401 whole entry): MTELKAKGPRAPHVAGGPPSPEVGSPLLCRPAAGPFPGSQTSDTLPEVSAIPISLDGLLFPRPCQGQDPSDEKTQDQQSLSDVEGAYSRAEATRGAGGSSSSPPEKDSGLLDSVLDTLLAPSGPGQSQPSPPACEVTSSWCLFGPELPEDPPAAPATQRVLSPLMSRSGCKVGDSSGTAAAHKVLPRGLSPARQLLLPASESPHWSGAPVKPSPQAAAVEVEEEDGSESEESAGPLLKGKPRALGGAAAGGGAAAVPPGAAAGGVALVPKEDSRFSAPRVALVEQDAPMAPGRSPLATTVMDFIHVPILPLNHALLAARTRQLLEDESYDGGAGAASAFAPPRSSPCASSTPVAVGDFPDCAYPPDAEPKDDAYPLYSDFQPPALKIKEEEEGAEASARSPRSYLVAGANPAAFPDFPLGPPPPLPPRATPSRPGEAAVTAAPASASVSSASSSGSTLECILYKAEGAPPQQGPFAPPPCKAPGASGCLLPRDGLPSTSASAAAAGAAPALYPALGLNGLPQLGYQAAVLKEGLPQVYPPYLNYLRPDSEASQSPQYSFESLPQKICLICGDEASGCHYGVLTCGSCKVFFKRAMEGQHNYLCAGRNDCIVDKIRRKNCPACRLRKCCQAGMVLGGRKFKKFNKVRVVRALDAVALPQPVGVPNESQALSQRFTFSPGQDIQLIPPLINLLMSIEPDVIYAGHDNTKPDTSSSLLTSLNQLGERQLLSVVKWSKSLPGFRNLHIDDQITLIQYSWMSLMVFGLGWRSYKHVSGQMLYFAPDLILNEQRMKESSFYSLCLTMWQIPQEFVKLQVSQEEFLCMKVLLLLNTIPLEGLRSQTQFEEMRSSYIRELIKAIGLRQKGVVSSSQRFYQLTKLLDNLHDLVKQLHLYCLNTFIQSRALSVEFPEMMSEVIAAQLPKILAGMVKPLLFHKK
T4 sequence (P03372 whole entry): as the sequence (P03372 whole entry F404L/D538G) above, with L404F, G538D counted along it

## Cc1cccn2c(CNCc3cccc(N(C)C)n3)cnc12 [VPC-260724]
[1]; 24 h
  IC50: 5.7 µM
[1]
  IC50: 5.75 ± 1.13 µM
[2]
  Transcriptional activity of PR: did not significantly impact
ER D538G/F404L mutant
  Transcriptional activity of mutant ER D538G/F404L: significantly reduced the transcriptional activity
[3]; 10 µM with 1 µM Tamoxifen
  ER target gene expression in TamR3, combined with tamoxifen: markedly reduced
[3]; 10 µM, E2 stimulation
  mRNA levels of ER target genes, TamR3: significant decrease
[4]
  Transcriptional activity of AR: did not significantly impact
[5]
  Kd: 85.2 ± 32.7 µM
[6]
  ER-SRC3 interactions (PLA signals per nuclei), MCF7: significantly reduced ER-SRC3 interactions
